Details of this data set: species or system White New Zealand male rabbits. The conditions noted are these: rabbit, in vivo, sc, 18 mg/kg. As for the experimental part: The study was performed in 6 White New Zealand male rabbits (body weight: 3.63±0.17 kg; min-max 3.47-3.88 kg) and included MS1 and MS2 loaded at 40 mg/mL of teicoplanin (Sigma, T-0578).
Briefly, teicoplanin was reconstituted in water for injection at the concentration of […] (100 mL). Sterile dry beads (≈6 mL in 5% glucose) were hydrated/loaded in the teicoplanin solution (20 mL) with continuous agitation on rotating wheel (≈30 rpm). After 20 min, the supernatant was retrieved and kept for drug quantification. Microspheres (MS1 and MS2) were then washed in water, and kept on shell until the time of administration. At the time of injection, MS were suspended in saline and the appropriate volume of bead (≈4 mL) suspension was sampled for injection at a ratio of 2:1 MS/saline (Table 7). Each microsphere was administered once subcutaneously at the same dose of drug at two injection sites to 2 animals. Teicoplanin control (Sigma, T-0578) was administered once in one animal and repeated daily in another animal. […]
A vascular access was gained in the auricular artery for blood sampling and in auricular vein for perfusion. […] The lowest limit of quantification of the method (LOQ) is 2.0 mg/L. The results of plasmatic assay of teicoplanin are reported in table 8 and in FIG. 7.

Substance teicoplanin [Injectable teicoplanin] gave a Teicoplanin serum concentration of under 2.0 mg/L.

These data come from patent publication US20230241158A1, “Hydrophilic Degradable Microspheres for Local Delivering of Glycopeptide Antibiotics and Polycationic Peptide Antibiotics” (priority 2020, published 2023).
